Measured values from PubChem BioAssay (NCI).
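Dose response: 5 concentrations. Exposure: 48 h. Format: 96-well plates. Endpoint: linear interpolation; highest concentration if not reached. TGI: total growth inhibition.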

What was measured:
Assay in all cases: NCI-60 cell line screen, 48 h
HCT-15 colon = tested on: HCT-15 colon
T-47D breast = tested on: T-47D breast
SNB-75 CNS = tested on: SNB-75 CNS
SK-OV-3 ovarian = tested on: SK-OV-3 ovarian
SF-268 CNS = tested on: SF-268 CNS
EKVX NSCLC = tested on: EKVX NSCLC
SF-295 CNS = tested on: SF-295 CNS
ACHN renal = tested on: ACHN renal
OVCAR-3 ovarian = tested on: OVCAR-3 ovarian
HT29 colon = tested on: HT29 colon
UO-31 renal = tested on: UO-31 renal
DU-145 prostate = tested on: DU-145 prostate
IGROV1 ovarian = tested on: IGROV1 ovarian
MALME-3M melanoma = tested on: MALME-3M melanoma
MDA-N = tested on: MDA-N
M14 melanoma = tested on: M14 melanoma
OVCAR-4 ovarian = tested on: OVCAR-4 ovarian
786-0 renal = tested on: 786-0 renal
SK-MEL-28 melanoma = tested on: SK-MEL-28 melanoma
CAKI-1 renal = tested on: CAKI-1 renal
NCI/ADR-RES ovarian = tested on: NCI/ADR-RES ovarian
RXF 393 renal = tested on: RXF 393 renal
U251 CNS = tested on: U251 CNS
SK-MEL-5 melanoma = tested on: SK-MEL-5 melanoma
MCF7 breast = tested on: MCF7 breast
SN12C renal = tested on: SN12C renal
CCRF-CEM leukemia = tested on: CCRF-CEM leukemia
MDA-MB-435 = tested on: MDA-MB-435
PC-3 prostate = tested on: PC-3 prostate
NCI-H460 lung = tested on: NCI-H460 lung
SF-539 CNS = tested on: SF-539 CNS
SR leukemia = tested on: SR leukemia
SW-620 colon = tested on: SW-620 colon
HL-60(TB) leukemia = tested on: HL-60(TB) leukemia
RPMI-8226 leukemia = tested on: RPMI-8226 leukemia
TK-10 renal = tested on: TK-10 renal
KM12 colon = tested on: KM12 colon
UACC-62 melanoma = tested on: UACC-62 melanoma
NCI-H23 lung = tested on: NCI-H23 lung
A549 NSCLC = tested on: A549 NSCLC
COLO 205 colon = tested on: COLO 205 colon
K-562 leukemia = tested on: K-562 leukemia
NCI-H226 lung = tested on: NCI-H226 lung
OVCAR-5 ovarian = tested on: OVCAR-5 ovarian
HCC-2998 colon = tested on: HCC-2998 colon
SNB-19 CNS = tested on: SNB-19 CNS
MDA-MB-231 breast = tested on: MDA-MB-231 breast
HCT-116 colon = tested on: HCT-116 colon
HS 578T breast = tested on: HS 578T breast
MOLT-4 leukemia = tested on: MOLT-4 leukemia
NCI-H522 lung = tested on: NCI-H522 lung
SK-MEL-2 melanoma = tested on: SK-MEL-2 melanoma
HOP-62 NSCLC = tested on: HOP-62 NSCLC
BT-549 breast = tested on: BT-549 breast
OVCAR-8 ovarian = tested on: OVCAR-8 ovarian
A498 renal = tested on: A498 renal
LOX IMVI melanoma = tested on: LOX IMVI melanoma
UACC-257 melanoma = tested on: UACC-257 melanoma

Measured: TGI

COc1cc([N+](=O)[O-])c(S(=O)(=O)O)cc1-[n+]1nc(C(=O)Nc2ccccc2)nn1-c1ccc([N+](=O)[O-])c(S(=O)(=O)[O-])c1
not listed: BT-549 breast | OVCAR-8 ovarian | A498 renal | LOX IMVI melanoma | UACC-257 melanoma
> 100 µM: all other assays above

O=C(O)C1C2OC(C(Br)C2Br)C1C(=O)O (stereo not drawn)
not listed: CCRF-CEM leukemia | SR leukemia | HCC-2998 colon
> 100 µM: all other assays above
